# What was measured:
# [1] = system: human embryonal carcinoma (EC) cell line NT2/D1; test: Retinoic acid induction of NT2/D1 cells (differentiation, northern analysis); assay type: cell-based; details: nine days of RA, 0.01 to 10 µM, normalized to β-actin probe
# Protocol: The human embryonal carcinoma (EC) cell line NT2/D1 can be induced to differentiate at concentrations of retinoic acid (RA) varying from 0.01 to 10 µM, with the proportion of differentiating EC cells ranging from 50% at […] RA to greater than 99% at […] RA. The expression of MK and HBNF during differentiation of NT2/D1 is studied, at concentrations ranging from 0.01 to 10 µM. After nine days of exposure to RA, total RNA was extracted from cells and probed for gene expression by northern analysis. Expression of both gene follows a similar pattern. Levels of mRNA expression remain at a steady background level. When RNA hybridization signals are normalized to a control β-actin probe, the maximum increases are calculated to be 6-fold for HBNF and 11-fold for MK. […] In this cell line, MK gene expression is induced 8-10 fold above background.
# The human embryonal carcinoma cell line Nt2/D1 is grown. For retinoic acid induction, cells are grown and resuspended in DMEM medium containing 10% bovine calf serum and resuspended in DMEM medium containing 10% bovine calf serum (Hyclone Laboratories, Inc.) at a density of 5 x 10⁵ cells per 100 mm dish. Varying concentrations of all-trans retinoic acid in dimethyl sulfoxide (10 µl) is added and cells are incubated for 9 days. Fresh medium and RA are added at days 4 and 8. […]
# mouse EC cell line, HM-1 = details: retinoic acid induction; cited from earlier work
structure (smiles),measurement,setting,value
"CC1=C(/C=C/C(C)=C/C=C/C(C)=C/C(=O)O)C(C)(C)CCC1 [RA, all-trans retinoic acid]",maximum increase of HBNF mRNA expression,[1],6 fold
same,maximum increase of MK mRNA expression,[1],11 fold
same,MK gene expression induced above background,"mouse EC cell line, HM-1",8-10 fold
